Data: patent US20240124466A1, “COMPOUNDS AND USE THEREOF FOR TREATMENT OF NEURODEGENERATIVE, DEGENERATIVE AND METABOLIC DISORDERS” (VOVA IDA THERAPEUTICS, INC., priority 2020, published 2024)
“And” between values parts separate entries of the source, which are not always exact repeats. Equal entries are not always repeated. Where two headings read alike, the source gives them in different places.

How the values were obtained:
[1] = test system: PK1 neuroblastoma cells exposed to TPrP; settings: for toxic at cc (concentration above which compound is toxic): mouse
[2] = test system: PK1 neuroblastoma cells exposed to TPrP; assay: cells; settings: Neuroblastoma cell, 96 h, read-out: TPrP EC50

Cc1ccc(-c2nnc(-c3ccccc3)[nH]2)cc1S(=O)(=O)N1CCOCC1 [SR-25604, 4-((2-Methyl-5-(5-phenyl-4H-1,2,4-triazol-3-yl)phenyl)sulfonyl)morpholine]
EC50 ([1]; read-out: TPrP EC50): 30 nM and 40 nM
EC50 [2]: 35 nM

Cc1ccc(-c2nnc(-c3ccc(N(C)C)cc3)[nH]2)cc1S(=O)(=O)N1CCOCC1 [SR-28124, N,N-dimethyl-4-(5-(4-methyl-3-(morpholinosulfonyl)phenyl)-4H-1,2,4-triazol-3-yl)aniline]
toxic at cc (concentration above which compound is toxic) [1]: 12 nM (but toxic at cc >135 nM)
EC50 [2]: 12 nM

Cc1ccc(-c2nnc(-c3ccc([N+](=O)[O-])cc3)[nH]2)cc1S(=O)(=O)N1CCOCC1 [SR-29045, 4-((2-Methyl-5-(5-(4-nitrophenyl)-4H-1,2,4-triazol-3-yl)phenyl)sulfonyl) morpholine]
toxic at cc (concentration above which compound is toxic) [1]: 5 nM (but toxic at cc >5 nM)
EC50 [2]: 5 nM

Cc1ccc(-c2ccnc(-c3ccncc3)c2)cc1S(=O)(=O)N1CCOCC1 [SR-29204, 4-((5-([2,4′-Bipyridin]-4-yl)-2-methylphenyl)sulfonyl)morpholine]
protection at 5 nM [1]: <5 nM (100% protection at 5 nM)
EC50 [2]: < 5 nM
